Measured values from PubChem BioAssay AID220 (DTP/NCI, 2004).
Results filed as inconclusive are left out.

Test system: CD8F1 mice, subcutaneous mammary adenocarcinoma, T/C%
Assay: NCI In Vivo Anticancer Drug Screen. Data for tumor model Mammary Adenocarcinoma CD8F1 (subcutaneous) in CD8F1
Conditions: higher = larger tumour
Procedure, shortened: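 Transplantable tumors were established in mice, animals were dosed with compound or vehicle, and survival or tumor size was then measured in both groups. The treated result was divided by the control result.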

[1] = endpoint: median tumor weight (est.), dose: 50.0 mg/kg/injection, schedule: Q07DX005 (ip), vehicle: saline with Tween-80
[2] = endpoint: median tumor weight (est.), dose: 100.0 mg/kg/injection, schedule: Q07DX005 (ip), vehicle: saline
[3] = endpoint: median tumor weight (est.), dose: 200.0 mg/kg/injection, schedule: Q07DX005 (ip), vehicle: saline with Tween-80
[4] = endpoint: median tumor weight (est.), dose: 200.0 mg/kg/injection, schedule: Q07DX005 (ip), vehicle: saline
[5] = endpoint: median tumor weight (est.), dose: 400.0 mg/kg/injection, schedule: Q07DX005 (ip), vehicle: saline with Tween-80
[6] = endpoint: median tumor weight (est.), dose: 400.0 mg/kg/injection, schedule: Q07DX005 (ip), vehicle: saline
[7] = endpoint: median tumor weight (est.), dose: 800.0 mg/kg/injection, schedule: Q07DX005 (ip), vehicle: saline
[8] = endpoint: median tumor weight (est.), dose: 6.25 mg/kg/injection, schedule: Q07DX005 (ip), vehicle: Klucel (hydroxypropylcellulose) (HPC)
[9] = endpoint: median tumor weight (est.), dose: 12.5 mg/kg/injection, schedule: Q07DX005 (ip), vehicle: Klucel (hydroxypropylcellulose) (HPC)
[10] = endpoint: median tumor weight (est.), dose: 25.0 mg/kg/injection, schedule: Q07DX005 (ip), vehicle: Klucel (hydroxypropylcellulose) (HPC)
[11] = endpoint: median tumor weight (est.), dose: 50.0 mg/kg/injection, schedule: Q07DX005 (ip), vehicle: Klucel (hydroxypropylcellulose) (HPC)
[12] = endpoint: median tumor weight (est.), dose: 100.0 mg/kg/injection, schedule: Q07DX005 (ip), vehicle: Klucel (hydroxypropylcellulose) (HPC)
[13] = endpoint: median tumor weight (est.), dose: 200.0 mg/kg/injection, schedule: Q07DX005 (ip), vehicle: Klucel (hydroxypropylcellulose) (HPC)
[14] = endpoint: median tumor weight change, dose: 62.5 mg/kg/injection, schedule: Q01DX001 (ip), vehicle: saline with Tween-80
[15] = endpoint: median tumor weight change, dose: 125.0 mg/kg/injection, schedule: Q01DX001 (ip), vehicle: saline with Tween-80
[16] = endpoint: median tumor weight change, dose: 250.0 mg/kg/injection, schedule: Q01DX001 (ip), vehicle: saline with Tween-80
[17] = endpoint: median tumor weight change, dose: 500.0 mg/kg/injection, schedule: Q01DX001 (ip), vehicle: saline with Tween-80
[18] = endpoint: median tumor weight change, dose: 1000.0 mg/kg/injection, schedule: Q01DX001 (ip), vehicle: saline with Tween-80

`NC(=S)N/N=C/c1ccc(O)cn1` was tested, and the T/C (endpoint: mean tumor weight, dose: 12.5 mg/kg/injection, schedule: Q07DX005 (ip), vehicle: saline with Tween-80) was 101 % of control, the T/C (endpoint: mean tumor weight, dose: 25.0 mg/kg/injection, schedule: Q07DX005 (ip), vehicle: saline with Tween-80) was 75 % of control and the T/C (endpoint: mean tumor weight, dose: 50.0 mg/kg/injection, schedule: Q07DX005 (ip), vehicle: saline with Tween-80) was 58 % of control. The T/C (endpoint: mean tumor weight, dose: 100.0 mg/kg/injection, schedule: Q07DX005 (ip), vehicle: saline with Tween-80) was 49 % of control, the T/C (endpoint: mean tumor weight, dose: 200.0 mg/kg/injection, schedule: Q07DX005 (ip), vehicle: saline with Tween-80) was 63 % of control and the T/C (endpoint: median tumor weight (est.), dose: 12.5 mg/kg/injection, schedule: Q07DX005 (ip), vehicle: saline with Tween-80) was 106 % of control. For the same compound, the T/C (endpoint: median tumor weight (est.), dose: 25.0 mg/kg/injection, schedule: Q07DX005 (ip), vehicle: saline) was 59 % of control, the T/C [1] was 85 % of control and the T/C (endpoint: median tumor weight (est.), dose: 50.0 mg/kg/injection, schedule: Q07DX005 (ip), vehicle: saline) was 76 % of control. The T/C (endpoint: median tumor weight (est.), dose: 100.0 mg/kg/injection, schedule: Q07DX005 (ip), vehicle: saline with Tween-80) was 124 % of control, the T/C [2] was 105 % of control and the T/C [3] was 60 % of control. The T/C [4] was 64 % of control, the T/C [5] was 52 % of control and the T/C [6] was 44 % of control. The T/C [7] was 2 % of control.
With `CC(=O)NC(C=O)OCC=O` (stereo not drawn) the T/C (endpoint: median tumor weight change, dose: 62.5 mg/kg/injection, schedule: Q01DX001 (ip), vehicle: water) was 85 % of control, the T/C (endpoint: median tumor weight change, dose: 125.0 mg/kg/injection, schedule: Q01DX001 (ip), vehicle: water) was 118 % of control and the T/C (endpoint: median tumor weight change, dose: 250.0 mg/kg/injection, schedule: Q01DX001 (ip), vehicle: water) was 118 % of control. For the same compound, the T/C (endpoint: median tumor weight change, dose: 500.0 mg/kg/injection, schedule: Q01DX001 (ip), vehicle: water) was 34 % of control.
For `C=CCNc1ccc(C)cc1`, the T/C [8] was 73 % of control, the T/C [9] was 77 % of control and the T/C [10] was 80 % of control. For the same compound, the T/C [11] was 57 % of control, the T/C [12] was 88 % of control and the T/C [13] was 62 % of control.
For `CC1(C)CC23C4COC(=O)C2CCC1C3CC4=O` (stereo not drawn), the T/C (endpoint: median tumor weight (est.), dose: 18.0 mg/kg/injection, schedule: Q07DX005 (ip), vehicle: DMSO) was 72 % of control, the T/C (endpoint: median tumor weight (est.), dose: 18.0 mg/kg/injection, schedule: Q07DX005 (ip), vehicle: Klucel (hydroxypropylcellulose) (HPC)) was 98 % of control and the T/C (endpoint: median tumor weight (est.), dose: 36.0 mg/kg/injection, schedule: Q07DX005 (ip), vehicle: DMSO) was 79 % of control. The T/C (endpoint: median tumor weight (est.), dose: 36.0 mg/kg/injection, schedule: Q07DX005 (ip), vehicle: Klucel (hydroxypropylcellulose) (HPC)) was 89 % of control, the T/C (endpoint: median tumor weight (est.), dose: 72.0 mg/kg/injection, schedule: Q07DX005 (ip), vehicle: Klucel (hydroxypropylcellulose) (HPC)) was 97 % of control and the T/C (endpoint: median tumor weight (est.), dose: 144.0 mg/kg/injection, schedule: Q07DX005 (ip), vehicle: Klucel (hydroxypropylcellulose) (HPC)) was 71 % of control. The T/C (endpoint: median tumor weight (est.), dose: 288.0 mg/kg/injection, schedule: Q07DX005 (ip), vehicle: DMSO) was 87 % of control and the T/C (endpoint: median tumor weight (est.), dose: 288.0 mg/kg/injection, schedule: Q07DX005 (ip), vehicle: Klucel (hydroxypropylcellulose) (HPC)) was 66 % of control.
`COc1cccc2c1C(=O)c1c(O)c3c(c(O)c1C2=O)C[C@H](O)C[C@@H]3OC1CC(N)C(O)C(C)O1` (stereo partly drawn) was tested, and the T/C (endpoint: median tumor weight (est.), dose: 0.78 mg/kg/injection, schedule: Q07DX005 (ip), vehicle: saline) was 68 % of control, the T/C (endpoint: median tumor weight (est.), dose: 1.56 mg/kg/injection, schedule: Q07DX005 (ip), vehicle: saline) was 79 % of control and the T/C (endpoint: median tumor weight (est.), dose: 3.12 mg/kg/injection, schedule: Q07DX005 (ip), vehicle: saline) was 82 % of control. For the same compound, the T/C (endpoint: median tumor weight (est.), dose: 6.25 mg/kg/injection, schedule: Q07DX005 (ip), vehicle: saline) was 84 % of control and the T/C (endpoint: median tumor weight (est.), dose: 12.5 mg/kg/injection, schedule: Q07DX005 (ip), vehicle: saline) was 70 % of control.
In the case of `Oc1ccc(CCl)c2cccnc12`, the T/C (endpoint: median tumor weight change, dose: 62.5 mg/kg/injection, schedule: Q01DX001 (ip), vehicle: saline) is reported as 54 % of control and the T/C (endpoint: median tumor weight change, dose: 125.0 mg/kg/injection, schedule: Q01DX001 (ip), vehicle: saline) is reported as 78 % of control.
For `O=c1[nH]c(=O)n(C2CC(O)C(CO)O2)cc1C(F)(F)F` (stereo not drawn), the T/C (endpoint: mean tumor weight, dose: 125.0 mg/kg/injection, schedule: Q07DX005 (ip), vehicle: saline) was 65 % of control, the T/C (endpoint: mean tumor weight, dose: 250.0 mg/kg/injection, schedule: Q07DX005 (ip), vehicle: saline) was 84 % of control and the T/C (endpoint: mean tumor weight, dose: 250.0 mg/kg/injection, schedule: Q07DX008 (ip), vehicle: saline) was 184 % of control. For the same compound, the T/C (endpoint: mean tumor weight, dose: 500.0 mg/kg/injection, schedule: Q07DX005 (ip), vehicle: saline) was 59 % of control, the T/C (endpoint: mean tumor weight, dose: 500.0 mg/kg/injection, schedule: Q07DX008 (ip), vehicle: saline) was 55 % of control and the T/C (endpoint: mean tumor weight, dose: 750.0 mg/kg/injection, schedule: Q07DX008 (ip), vehicle: saline) was 68 % of control. The T/C (endpoint: median tumor weight (est.), dose: 12.5 mg/kg/injection, schedule: Q07DX005 (ip), vehicle: suspension in saline) was 28 % of control, the T/C (endpoint: median tumor weight (est.), dose: 250.0 mg/kg/injection, schedule: Q07DX005 (ip), vehicle: suspension in saline) was 100 % of control and the T/C (endpoint: median tumor weight (est.), dose: 500.0 mg/kg/injection, schedule: Q07DX005 (ip), vehicle: suspension in saline) was 26 % of control.
In the case of `C=COC(=O)C(Cc1ccccc1)NC(=O)OCc1ccccc1` (stereo not drawn), the T/C [14] is reported as 103 % of control, the T/C [15] is reported as 58 % of control and the T/C [16] is reported as 46 % of control. The T/C [17] was 33 % of control and the T/C [18] was 75 % of control.
`FC(F)(F)c1nc2nc(Cl)c(Cl)nc2[nH]1` was tested, and the T/C [14] was 77 % of control, the T/C [15] was 114 % of control and the T/C [16] was 74 % of control.
For `C[C@H]1C[C@@H]2[C@H]([C@@H](O)C[C@@]3(C)[C@H]2CC[C@]3(O)C(=O)CO)[C@@]2(C)C=CC(=O)C=C12`, the T/C [8] was 70 % of control, the T/C [9] was 63 % of control and the T/C [10] was 63 % of control. The T/C [11] was 60 % of control, the T/C [12] was 53 % of control and the T/C [13] was 28 % of control.
In the case of `CCCCn1cnc2c(=S)nc[nH]c21`, the T/C [16] is reported as 60 % of control, the T/C [17] is reported as 2 % of control and the T/C [18] is reported as 8 % of control.
For `Clc1ccc(CN2COc3c(ccc4cccnc34)C2)cc1Cl`, the T/C (endpoint: median tumor weight (est.), dose: 25.0 mg/kg/injection, schedule: Q07DX005 (ip), vehicle: saline with Tween-80) was 113 % of control, the T/C [1] was 65 % of control and the T/C [3] was 66 % of control. The T/C [5] was 96 % of control.
`O=C(O)CP(=O)(O)O` was tested, and the T/C [2] was 90 % of control, the T/C [4] was 97 % of control and the T/C [6] was 57 % of control. The T/C [7] was 79 % of control.
For `O=C(/C=C(\Cl)C(=O)NO)NO`, the T/C (endpoint: median tumor weight change, dose: 62.5 mg/kg/injection, schedule: Q01DX001 (ip), vehicle: suspension in saline) was 111 % of control, the T/C (endpoint: median tumor weight change, dose: 125.0 mg/kg/injection, schedule: Q01DX001 (ip), vehicle: suspension in saline) was 79 % of control and the T/C (endpoint: median tumor weight change, dose: 250.0 mg/kg/injection, schedule: Q01DX001 (ip), vehicle: suspension in saline) was 83 % of control.
